Values joined by “and” are separate entries in the source; they are usually repeats but may differ in a detail not shown here. Identical values can stand only once. Like-named read-outs stand apart in the source and are kept apart here.
Legend:
Assay type in all cases: in vivo
[1] = test system: Abutilon theophrasti; experiment: Post-emergence test/greenhouse, % damage after three weeks
Excerpt: (§1) The expected action for a given combination of two herbicides can be calculated as follows (cf. COLBY, S. R.: “Calculating synergistic and antagonistic responses of herbicide combinations”, Weeds 15, pages 20-22, 1967):
(§2) If • X=% damage by herbicide A (active compound of the formula I) at an application rate of p kg/ha and • Y=% damage by herbicide B (active compound of the formula II) at an application rate of q kg/ha and • E=the expected damage of herbicides A+B at an application rate of p+q kg/ha, then
(§3) If the actual damage exceeds the calculated value, the combination has a superadditive effect, that is to say a synergistic effect.
(§4) Test plants are grown under control conditions (temperature and light). Once the plants have reached a height of 5 to 15 cm, the test compound or the combination of test compounds is applied by spraying such that the particular amounts of active compound desired are applied per unit area. The concentration of the spray liquor is chosen so that the particular amounts of active compound desired are applied in 500 litres of water/ha.
(§5) Following the spray application, the plant containers are kept in the greenhouse under constant light and temperature conditions.
(§6) After three weeks, the degree of damage to the plants is rated in % damage in comparison to the development of the untreated control.
(§7) The figures denote: • 0%=no effect (like untreated control) • 100%=total destruction

[2] = test system: Alopecurus myosuroides; experiment: as above
Excerpt: as §1, §2, §3, §4, §5, §6, §7

[3] = test system: Avena fatua; experiment: as above
Excerpt: as §1, §2, §3, §4, §5, §6, §7

[4] = test system: Chenopodium album; experiment: as above
Excerpt: as §1, §2, §3, §4, §5, §6, §7

[5] = test system: Cyperus esculentus; experiment: as above
Excerpt: as §1, §2, §3, §4, §5, §6, §7

[6] = test system: Digitaria sanguinalis; experiment: as above
Excerpt: as §1, §2, §3, §4, §5, §6, §7

[7] = test system: Ipomoea hederacea; experiment: as above
Excerpt: as §1, §2, §3, §4, §5, §6, §7

[8] = test system: Matricaria inodora; experiment: as above
Excerpt: as §1, §2, §3, §4, §5, §6, §7

[9] = test system: Setaria viridis; experiment: as above; settings: for Setria viridis observed: post-emergence
Excerpt: as §1, §2, §3, §4, §5, §6, §7

[10] = test system: Viola arvensis; experiment: as above
Excerpt: as §1, §2, §3, §4, §5, §6, §7

[11] = test system: Xanthium strumarium; experiment: as above
Excerpt: as §1, §2, §3, §4, §5, §6, §7

[12] = test system: Bromus secalinus; experiment: as above; settings: Bromus secalinus, post-emergence, 504 h, read-out: Bromus secalinus observed
Method: as §1, §3
(§8) Test plants are grown under control conditions (temperature and light).
as §5, §6

[13] = test system: Cassia tora; experiment: as above
Method: as §1, §3, §8, §5, §6

[14] = test system: Veronica persicaria; experiment: as above
Method: as §1, §3, §8, §5, §6

[15] = test system: test plants; experiment: Post-emergence test/greenhouse, % damage after three weeks (further test plants, Tables A-1-30 to A-1-104)
Excerpt: as §1, §2, §3, §4, §5, §6, §7

[16] = test system: Polygonum convolvolus; experiment: Post-emergence test/greenhouse, % damage after three weeks
[17] = test system: Eriochloa villosa; experiment: as above
[18] = test system: Galium aparine; experiment: as above; settings: 4 g of ai/ha
[19] = test system: Lolium perenne; experiment: as above

`COC(=O)c1csc(C)c1S(=O)(=O)NC(=O)n1nc(OC)n(C)c1=O` [I-2] was tested, and the Abutilon theophrasti observed ([1]; 2 g of ai/ha) was 60%, the Abutilon theophrasti observed ([1]; 4 g of ai/ha) was 70% and the “Activity against Abutilon theophrasti (%)” value ([1]; 8 g of a.i./ha) was 70%. The Alopecurus myosuroides observed ([2]; 2 g of ai/ha) was 70% and 80%, the Alopecurus myosuroides observed ([2]; 4 g of ai/ha) was 70% and 80% and the Alopecurus myosuroides observed ([2]; 8 g of ai/ha) was 90% and 80%. For the same compound, the Alopecurus myosuroides observed ([2]; 15 g of ai/ha) was 90% and 80%, the Avena fatua observed ([3]; 2 g of ai/ha) was 70% and 50% and 80% and the Avena fatua observed ([3]; 4 g of ai/ha) was 80% and 70% and 90%. For the same compound, the Avena fatua observed ([3]; 8 g of ai/ha) was 70% and 90%, the Avena fatua observed ([3]; 15 g of ai/ha) was 70% and the Chenopodium album observed ([4]; 4 g of ai/ha) was 70%. For the same compound, the “Activity against Chenopodium album (%)” value ([4]; 8 g of a.i./ha) was 70%, the Chenopodium album observed ([4]; 8 g of ai/ha) was 85% and the Chenopodium album observed ([4]; application rate 2 g of ai/ha) was 70%. For the same compound, the Cyperus esculentus observed ([5]; 8 g of ai/ha) was 80% and 70%, the Cyperus esculentus observed ([5]; 15 g of ai/ha) was 70% and the Digitaria sanguinalis observed ([6]; 4 g of ai/ha) was 60%. The Digitaria sanguinalis observed ([6]; 8 g of ai/ha) was 80% and 90%, the Ipomoea hederacea observed ([7]; 2 g of ai/ha) was 80% and the Ipomoea hederacea observed ([7]; 4 g of ai/ha) was 80%. For the same compound, the Ipomoea hederacea observed ([7]; 8 g of ai/ha) was 80%, the Matricaria inodora observed ([8]; 2 g of ai/ha) was 50% and 80% and the Matricaria inodora observed ([8]; 4 g of ai/ha) was 70%. The Matricaria inodora observed ([8]; 15 g of ai/ha) was 95%, the Setaria viridis observed ([9]; 2 g of ai/ha) was 90% and the Setaria viridis observed ([9]; 4 g of ai/ha) was 80% and 90%. For the same compound, the Setaria viridis observed ([9]; 8 g of ai/ha) was 90% and 95%, the Setria viridis observed ([9]; application rate 2 g of ai/ha) was 90% and the Setria viridis observed ([9]; application rate 4 g of ai/ha) was 90%. It also gave a Viola arvensis observed ([10]; 4 g of ai/ha) of 40%, a Viola arvensis observed ([10]; 8 g of ai/ha) of 50% and a Xanthium strumarium observed ([11]; 4 g of ai/ha) of 90%. For the same compound, the Xanthium strumarium observed ([11]; 8 g of ai/ha) was 70%, the pest or weed control at 2 g/ha ([12]; 2 g of ai/ha) was 70% and the pest or weed control at 4 g/ha ([12]; 4 g of ai/ha) was 70%. It also gave a pest or weed control at 8 g/ha ([12]; 8 g of ai/ha) of 80%, a pest or weed control at 15 g/ha ([12]; 15 g of ai/ha) of 70% and a pest or weed control at 8 g/ha ([12]; application rate 8 g of ai/ha) of 80%. For the same compound, the Cassia tora observed ([13]; 2 g of ai/ha) was 20%, the Cassia tora observed ([13]; 4 g of ai/ha) was 0% and the Cassia tora observed ([13]; 8 g of ai/ha) was 0%. The Veronica persicaria observed ([14]; 2 g of ai/ha) was 0%, the Veronica persicaria observed ([14]; 15 g of ai/ha) was 60% and 40% and the Polygonum convolvolus observed ([15]; application rate 2 g of ai/ha) was 70%. The Polygonum convolvolus observed ([15]; application rate 4 g of ai/ha) was 80%, the Polygonum convolvolus observed ([15]; application rate 8 g of ai/ha) was 90% and the Polygonum convolvolus observed ([16]; 2 g of ai/ha) was 70%. The Polygonum convolvolus observed ([16]; 4 g of ai/ha) was 70% and 80%, the Eriochloa villosa observed ([17]; 4 g of ai/ha) was 40% and 30% and the Eriochloa villosa observed ([17]; 8 g of ai/ha) was 70% and 60% and 90%. The Galium aparine observed [18] was 80%, the Lolium perenne observed ([19]; 2 g of ai/ha) was 70% and 80% and the Lolium perenne observed ([19]; 4 g of ai/ha) was 70%. For the same compound, the Lolium perenne observed ([19]; 8 g of ai/ha) was 90%.

From patent US20120309622A1, “HERBICIDES CONTAINING SUBSTITUTED THIEN-3-YL-SULPHONYLAMINIO(THIO)CARBONYL-TRIAZOLIN(ETHI)ONES” (BAYER INTELLECTUAL PROPERTY GMBH, priority 2001, published 2012)
